Measured values: ChEMBL document CHEMBL1158911, “Isolation and Structure Determination of Inostamycin, a Novel Inhibitor of Phosphatidylinositol Turnover” (J Nat Prod, 1990)
≈ marks a conversion by molar mass, not a printed value. Calls of active or inactive are those of the source. No cut-off for these calls is given here.

Test system: A-431
Experiment: Inhibition of EGF-induced [3H]inositol incorporation in to phosphatidylinositol in human A431 cells after 60 mins by liquid scintillation spectrophotometry
Format: functional, cell-based

| IC50 [µg/mL] | SMILES | Activity |
| --- | --- | --- |
| 0.5 (≈ 0.713 µM) | CCC[C@H](O)[C@@]1(CC)C[C@@H](C)[C@](O)([C@]2(C)C[C@H](C)[C@@H]([C@@H](CC)C(=O)[C@@H](C)[C@@H](O)[C@H](C)[C@H]3O[C@@](O)([C@H](CC)C(=O)O)[C@@H](C)[C@H](O)[C@H]3CC)O2)O1 [INOSTAMYCIN] |  |
|  | CC[C@@H](C(=O)[C@@H](C)[C@@H](O)[C@@H](C)[C@H]1O[C@@H](CC(=O)OO)[C@H](C)C[C@@H]1C)[C@H]1O[C@](C)([C@]2(O)O[C@](CC)([C@@H](O)CC)C[C@H]2C)C[C@@H]1C | Active |
|  | CC[C@@]1([C@@H]2O[C@@H]([C@H]3O[C@@](O)(CO)[C@H](C)C[C@@H]3C)C[C@@H]2C)CC[C@H]([C@]2(C)CC[C@]3(C[C@H](O)[C@@H](C)[C@@H]([C@@H](C)[C@@H](OC)[C@H](C)C(=O)O)O3)O2)O1 | inactive |
